Data from patent publication US9206219B2, “17-hydroxy-17-pentafluorethyl-estra-4,9(10)-dien-11-aryl derivatives, methods for the production thereof and the use thereof for treating diseases” (Bayer Intellectual Property GmbH, priority 2009, dated 2015).

Columns and labels:
[1] = biological target: T1, human progesterone receptor B (Homo sapiens, UniProt P06401); assay: Progesterone receptor-antagonistic action in stably transfected SK-N-MC cells, MMTV-LUC reporter (PR-B); assay type: cell-based; settings: antagonistic potency vs 0.1 nmol/l promegestone, 24 hours
T1 construct: expressed in transfected cells; host or cells: SK-N-MC human neuroblastoma cells, stably transfected with pRChPR-B-neo and pMMTV-LUC
T1 sequence (P06401 1-933): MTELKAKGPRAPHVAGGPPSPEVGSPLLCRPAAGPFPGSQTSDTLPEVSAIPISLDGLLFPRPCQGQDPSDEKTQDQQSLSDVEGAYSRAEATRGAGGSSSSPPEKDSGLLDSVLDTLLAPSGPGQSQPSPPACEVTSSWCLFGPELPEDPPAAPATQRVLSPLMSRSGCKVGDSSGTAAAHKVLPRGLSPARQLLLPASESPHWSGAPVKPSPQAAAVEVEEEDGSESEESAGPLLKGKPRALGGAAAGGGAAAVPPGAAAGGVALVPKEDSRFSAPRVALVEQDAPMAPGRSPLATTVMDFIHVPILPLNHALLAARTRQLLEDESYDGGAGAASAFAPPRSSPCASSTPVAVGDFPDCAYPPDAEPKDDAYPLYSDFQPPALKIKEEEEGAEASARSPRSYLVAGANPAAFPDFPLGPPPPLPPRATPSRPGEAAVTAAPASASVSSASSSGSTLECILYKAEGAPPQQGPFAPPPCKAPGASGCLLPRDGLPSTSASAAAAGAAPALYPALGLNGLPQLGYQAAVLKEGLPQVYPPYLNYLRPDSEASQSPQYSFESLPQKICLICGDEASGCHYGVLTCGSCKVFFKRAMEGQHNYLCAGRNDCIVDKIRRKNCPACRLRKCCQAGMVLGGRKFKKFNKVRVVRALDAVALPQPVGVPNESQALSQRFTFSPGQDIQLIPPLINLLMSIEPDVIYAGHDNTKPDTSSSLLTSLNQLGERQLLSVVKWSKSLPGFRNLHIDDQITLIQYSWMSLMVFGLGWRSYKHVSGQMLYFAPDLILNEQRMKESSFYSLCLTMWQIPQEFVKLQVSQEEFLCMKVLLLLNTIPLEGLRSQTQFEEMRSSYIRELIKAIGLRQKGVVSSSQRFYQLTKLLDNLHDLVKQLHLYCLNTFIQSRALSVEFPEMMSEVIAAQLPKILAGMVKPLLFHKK
Description: (§1) Progesterone Receptor-Antagonistic Action in Stable Transfectants of Human Neuroblastoma Cells (SK-N-MC Cells) with the Human Progesterone A or Progesterone B Receptor and an MN-LUC Reporter Construct
(§2) SK-N-MC cells (human neuroblastoma cells) which have been stably transfected with plasmids expressing the human progesterone receptor B (pRChPR-B-neo) or the human progesterone receptor A (pRChPR-A-neo) and a reporter construct (pMMTV-LUC) were incubated for 24 hours either in the absence (negative control) or in the presence of ascending amounts of the particular test compound (0.01 nmol/l, 0.1 nmol/l, 1 nmol/l, 10 nmol/l, 100 nmol/l and […]), in order to determine the agonistic efficacy. As a positive control of the reporter gene induction, the cells were treated with the synthetic gestagen promegestone (0.01 nmol/l, 0.1 nmol/l, 1 nmol/l, 10 nmol/l, 100 nmol/l and […]). To determine the antagonistic activity, the cells were treated with 0.1 nmol/l promegestone and additionally with ascending amounts of the particular test compound (0.01 nmol/l, 0.1 nmol/l, 1 nmol/l, 10 nmol/l, 100 nmol/l and […]). The activity of the reporter gene LUC (LUC=luciferase) was determined in the cell lysates and measured as RLU (relative light units). All measurements are reported as % efficacy and as EC50 and IC50 concentrations.

[2] = biological target: T2, human progesterone receptor A (Homo sapiens, UniProt P06401); assay: Progesterone receptor-antagonistic action in stably transfected SK-N-MC cells, MMTV-LUC reporter (PR-A); assay type: cell-based; settings: antagonistic potency vs 0.1 nmol/l promegestone, 24 hours
T2 construct: expressed in transfected cells; host or cells: SK-N-MC human neuroblastoma cells, stably transfected with pRChPR-A-neo and pMMTV-LUC
T2 sequence (P06401 1-769 isoform P06401-2): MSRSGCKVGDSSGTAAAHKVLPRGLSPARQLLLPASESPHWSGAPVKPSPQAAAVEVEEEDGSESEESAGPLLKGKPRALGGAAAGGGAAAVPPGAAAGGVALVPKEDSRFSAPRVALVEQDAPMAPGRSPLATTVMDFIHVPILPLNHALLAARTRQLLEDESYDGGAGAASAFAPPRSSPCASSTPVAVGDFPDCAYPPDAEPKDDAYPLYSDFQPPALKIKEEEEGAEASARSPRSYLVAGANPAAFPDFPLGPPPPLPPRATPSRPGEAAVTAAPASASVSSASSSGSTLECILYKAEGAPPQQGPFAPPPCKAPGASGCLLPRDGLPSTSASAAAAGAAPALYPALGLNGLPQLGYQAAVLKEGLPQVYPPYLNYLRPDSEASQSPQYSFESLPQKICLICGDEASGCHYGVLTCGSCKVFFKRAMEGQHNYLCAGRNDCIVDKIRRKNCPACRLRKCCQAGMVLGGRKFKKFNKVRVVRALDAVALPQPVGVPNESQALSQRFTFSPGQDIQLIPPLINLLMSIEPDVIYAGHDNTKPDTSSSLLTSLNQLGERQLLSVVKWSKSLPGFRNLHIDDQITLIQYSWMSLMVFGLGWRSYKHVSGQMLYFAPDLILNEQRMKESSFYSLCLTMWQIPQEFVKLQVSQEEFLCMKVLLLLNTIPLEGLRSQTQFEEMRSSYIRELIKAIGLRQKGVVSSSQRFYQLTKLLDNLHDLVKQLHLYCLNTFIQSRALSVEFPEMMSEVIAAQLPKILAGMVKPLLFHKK
Description: as §1, §2

For `CC(O)c1cccc([C@H]2C[C@@]3(C)C(CC[C@@]3(O)C(F)(F)C(F)(F)F)C3CCC4=CC(=O)CCC4=C32)c1` (mixture of isomers) [Example 11, (8S,11R,13S,14S,17S)-17-hydroxy-11-[3-((RS)-1-hydroxyethyl)phenyl]-13-methyl-17-pentafluoroethyl-1,2,6,7,8,11,12,13,14,15,16,17-dodecahydrocyclopenta[a]phenanthren-3-one], the IC50 [1] was 3 nM and the IC50 [2] was 2 nM.
With `C[C@]12C[C@H](c3ccc([C@@H]4CC4CO)cc3)C3=C4CCC(=O)C=C4CCC3C1CC[C@@]2(O)C(F)(F)C(F)(F)F` (single isomer, unassigned) [Example 6A] the IC50 [1] was 0.1 nM and the IC50 [2] was 0.1 nM.
In the case of `C[C@]12C[C@H](c3ccc(C4CC4)cc3)C3=C4CCC(=O)C=C4CC[C@H]3[C@@H]1CC[C@@]2(O)C(F)(F)C(F)(F)F` [Example 1, (8S,11R,13S,14S,17S)-11-(4-cyclopropylphenyl)-17-hydroxy-13-methyl-17-pentafluoroethyl-1,2,6,7,8,11,12,13,14,15,16,17-dodecahydrocyclopenta[a]phenanthren-3-one], the IC50 [1] is reported as 0.004 nM and the IC50 [2] is reported as less than 0.001 nM.
For `CC(=O)c1cccc([C@H]2C[C@@]3(C)[C@@H](CC[C@@]3(O)C(F)(F)C(F)(F)F)[C@@H]3CCC4=CC(=O)CCC4=C32)c1` [Example 10, (8S,11R,13S,14S,17S)-11-(3-acetylphenyl)-17-hydroxy-13-methyl-17-pentafluoroethyl-1,2,6,7,8,11,12,13,14,15,16,17-dodecahydrocyclopenta[a]phenanthren-3-one], the IC50 [1] was 3 nM and the IC50 [2] was 5 nM.
In the case of `C[C@]12C[C@H](c3cccc(C4CC4)c3)C3=C4CCC(=O)C=C4CC[C@H]3[C@@H]1CC[C@@]2(O)C(F)(F)C(F)(F)F` [Example 12, (8S,11R,13S,14S,17S)-11-(3-cyclopropylphenyl)-17-hydroxy-13-methyl-17-pentafluoroethyl-1,2,6,7,8,11,12,13,14,15,16,17-dodecahydrocyclopenta[a]phenanthren-3-one], the IC50 [1] is reported as 9 nM and the IC50 [2] is reported as 4 nM.
`CC1(c2cccc([C@H]3C[C@@]4(C)[C@@H](CC[C@@]4(O)C(F)(F)C(F)(F)F)[C@@H]4CCC5=CC(=O)CCC5=C43)c2)CC1` [Example 13, (8S,11R,13S,14S,17S)-17-hydroxy-13-methyl-11-[3-(1-methylcyclopropyl)phenyl]-17-pentafluoroethyl-1,2,6,7,8,11,12,13,14,15,16,17-dodecahydrocyclopenta[a]phenanthren-3-one] gave an IC50 [1] of 7 nM and an IC50 [2] of 4 nM.
`C[C@]12C[C@H](c3cccc(CCO)c3)C3=C4CCC(=O)C=C4CC[C@H]3[C@@H]1CC[C@@]2(O)C(F)(F)C(F)(F)F` [Example 14, (8S,11R,13S,14S,17S)-17-hydroxy-11-[3-(2-hydroxyethyl)phenyl]-13-methyl-17-pentafluoroethyl-1,2,6,7,8,11,12,13,14,15,16,17-dodecahydrocyclopenta[a]phenanthren-3-one] showed an IC50 [1] of 1 nM and an IC50 [2] of 1 nM.
`C[C@]12C[C@H](c3ccc(C(CO)CO)cc3)C3=C4CCC(=O)C=C4CC[C@H]3[C@@H]1CC[C@@]2(O)C(F)(F)C(F)(F)F` [Example 16, (8S,11R,13S,14S,17S)-17-hydroxy-11-[4-(2-hydroxy-1-hydroxymethylethyl)phenyl]-13-methyl-17-pentafluoroethyl-1,2,6,7,8,11,12,13,14,15,16,17-dodecahydrocyclopenta[a]phenanthren-3-one] was tested, and the IC50 [1] was 1 nM and the IC50 [2] was 0.8 nM.
In the case of `C=CCNC(=O)NCc1ccc([C@H]2C[C@@]3(C)[C@@H](CC[C@@]3(O)C(F)(F)C(F)(F)F)[C@@H]3CCC4=CC(=O)CCC4=C32)cc1` [Example 18, 1-allyl-3-[4-((8S,11R,13S,14S,17S)-17-hydroxy-13-methyl-3-oxo-17-pentafluoroethyl-2,3,6,7,8,11,12,13,14,15,16,17-dodecahydro-1H-cyclopenta[a]phenanthren-11-yl)benzyl]urea], the IC50 [1] is reported as 0.8 nM and the IC50 [2] is reported as 0.8 nM.
Work on `CC(C)NC(=O)NCc1ccc([C@H]2C[C@@]3(C)[C@@H](CC[C@@]3(O)C(F)(F)C(F)(F)F)[C@@H]3CCC4=CC(=O)CCC4=C32)cc1` [Example 19, 1-isopropyl-3-[4-((8S,11R,13S,14S,17S)-17-hydroxy-13-methyl-3-oxo-17-pentafluoroethyl-2,3,6,7,8,11,12,13,14,15,16,17-dodecahydro-1H-cyclopenta[a]phenanthren-11-yl)benzyl]urea] yielded an IC50 [1] of 0.7 nM and an IC50 [2] of 0.6 nM.
`CC(C)(C)NC(=O)NCc1ccc([C@H]2C[C@@]3(C)[C@@H](CC[C@@]3(O)C(F)(F)C(F)(F)F)[C@@H]3CCC4=CC(=O)CCC4=C32)cc1` [Example 20, 1-tert-butyl-3-[4-((8S,11R,13S,14S,17S)-17-hydroxy-13-methyl-3-oxo-17-pentafluoroethyl-2,3,6,7,8,11,12,13,14,15,16,17-dodecahydro-1H-cyclopenta[a]phenanthren-11-yl)benzyl]urea] gave an IC50 [1] of 1 nM and an IC50 [2] of 0.7 nM.
Compound `CCOC(=O)CNC(=O)NCc1ccc([C@H]2C[C@@]3(C)[C@@H](CC[C@@]3(O)C(F)(F)C(F)(F)F)[C@@H]3CCC4=CC(=O)CCC4=C32)cc1` [Example 21, {3-[4-((8S,11R,13S,14S,17S)-17-hydroxy-13-methyl-3-oxo-17-pentafluoroethyl-2,3,6,7,8,11,12,13,14,15,16,17-dodecahydro-1H-cyclopenta[a]phenanthren-11-yl)benzyl]ureido}acetic acid ethyl ester] has an IC50 [1] of 2.4 nM and an IC50 [2] of 1.2 nM.
Compound `CCOC(=O)CCNC(=O)NCc1ccc([C@H]2C[C@@]3(C)[C@@H](CC[C@@]3(O)C(F)(F)C(F)(F)F)[C@@H]3CCC4=CC(=O)CCC4=C32)cc1` [Example 22, 3-{3-[4-((8S,11R,13S,14S,17S)-17-hydroxy-13-methyl-3-oxo-17-pentafluoroethyl-2,3,6,7,8,11,12,13,14,15,16,17-dodecahydro-1H-cyclopenta[a]phenanthren-11-yl)benzyl]ureido}propionic acid ethyl ester] has an IC50 [1] of 0.6 nM and an IC50 [2] of 0.5 nM.
In the case of `Cc1ccc(NC(=O)NCc2ccc([C@H]3C[C@@]4(C)[C@@H](CC[C@@]4(O)C(F)(F)C(F)(F)F)[C@@H]4CCC5=CC(=O)CCC5=C43)cc2)cc1` [Example 25, 1-[4-((8S,11R,13S,14S,17S)-17-hydroxy-13-methyl-3-oxo-17-pentafluoroethyl-2,3,6,7,8,11,12,13,14,15,16,17-dodecahydro-1H-cyclopenta[a]phenanthren-11-yl)benzyl]-3-p-tolylurea], the IC50 [1] is reported as 0.6 nM and the IC50 [2] is reported as 0.3 nM.
